One block for each compound: values may come before it.
Target: T1, BRM (Homo sapiens, UniProt P51531)
T1 construct: In-Cell Western Screen of BRM Degradation in SW1573 Cells; endogenous in cells; host or cells: SW1573
Test: In-cell Western screen of BRM degradation in SW1573 cells (Dmax and DC50)
Assay type: cell-based
Conditions: BRM degradation, SW1573 cells; for DC50: read-out: DC50; for Dmax: when tested at the top concentration of between 0.3 and 10 μM, read-out: Dmax (%) (% degraded)
Method in brief: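 SW1573 cells were treated with compound overnight (18-20 h; final DMSO 0.1%), then fixed in 4% PFA, permeabilized with Triton X-100 and blocked. BRM was detected by in-cell Western using 800 nm anti-rabbit and 680 nm anti-mouse secondaries, and Dmax and DC50 were derived from the LI-COR Odyssey signal.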

T1 sequence (P51531 whole entry): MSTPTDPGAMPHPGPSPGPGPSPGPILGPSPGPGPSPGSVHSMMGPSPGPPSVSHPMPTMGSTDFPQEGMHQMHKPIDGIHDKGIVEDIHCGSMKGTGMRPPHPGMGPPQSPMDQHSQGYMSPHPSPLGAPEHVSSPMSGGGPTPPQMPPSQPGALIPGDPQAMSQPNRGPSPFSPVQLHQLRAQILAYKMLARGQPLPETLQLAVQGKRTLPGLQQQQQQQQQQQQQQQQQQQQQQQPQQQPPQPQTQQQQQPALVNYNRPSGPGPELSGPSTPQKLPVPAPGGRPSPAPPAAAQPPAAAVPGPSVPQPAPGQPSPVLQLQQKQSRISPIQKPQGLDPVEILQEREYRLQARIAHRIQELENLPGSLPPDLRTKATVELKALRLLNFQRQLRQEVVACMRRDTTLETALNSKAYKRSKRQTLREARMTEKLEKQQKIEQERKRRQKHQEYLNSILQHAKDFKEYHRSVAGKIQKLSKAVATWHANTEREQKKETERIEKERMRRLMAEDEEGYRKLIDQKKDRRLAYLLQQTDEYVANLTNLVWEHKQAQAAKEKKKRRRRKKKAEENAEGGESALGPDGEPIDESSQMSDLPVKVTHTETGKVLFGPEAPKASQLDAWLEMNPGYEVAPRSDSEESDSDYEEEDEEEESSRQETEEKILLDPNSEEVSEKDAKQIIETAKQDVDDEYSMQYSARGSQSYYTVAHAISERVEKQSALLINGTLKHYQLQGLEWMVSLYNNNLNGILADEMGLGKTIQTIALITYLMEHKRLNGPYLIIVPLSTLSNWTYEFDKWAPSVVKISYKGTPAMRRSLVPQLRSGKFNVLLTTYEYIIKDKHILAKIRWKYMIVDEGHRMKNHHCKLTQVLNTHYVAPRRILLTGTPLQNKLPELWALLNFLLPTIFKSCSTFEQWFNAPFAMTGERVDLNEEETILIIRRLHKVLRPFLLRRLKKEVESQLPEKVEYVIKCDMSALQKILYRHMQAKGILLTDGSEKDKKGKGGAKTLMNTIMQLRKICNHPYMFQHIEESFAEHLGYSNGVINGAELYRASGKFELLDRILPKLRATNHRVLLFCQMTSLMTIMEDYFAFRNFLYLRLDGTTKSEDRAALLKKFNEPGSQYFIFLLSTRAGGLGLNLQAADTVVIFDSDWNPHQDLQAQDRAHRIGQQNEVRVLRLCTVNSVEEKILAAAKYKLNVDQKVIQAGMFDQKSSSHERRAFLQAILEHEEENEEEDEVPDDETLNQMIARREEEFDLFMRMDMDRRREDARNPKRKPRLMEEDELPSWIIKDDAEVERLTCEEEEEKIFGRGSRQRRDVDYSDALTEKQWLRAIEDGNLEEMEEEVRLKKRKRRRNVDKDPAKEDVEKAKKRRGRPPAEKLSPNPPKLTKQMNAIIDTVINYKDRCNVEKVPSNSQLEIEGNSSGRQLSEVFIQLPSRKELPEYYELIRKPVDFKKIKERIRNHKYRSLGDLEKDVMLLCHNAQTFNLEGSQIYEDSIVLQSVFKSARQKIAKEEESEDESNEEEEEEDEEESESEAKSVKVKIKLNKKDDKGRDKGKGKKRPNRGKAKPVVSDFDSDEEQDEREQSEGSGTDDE

SMILES: Cc1ncsc1-c1ccc([C@H](C)NC(=O)[C@@H]2C[C@@H](O)CN2C(=O)[C@@H](c2onc(OCCN3CCN(CCOc4cc(N5C6CCC5CN(c5cc(-c7ccccc7O)nnc5N)C6)ccn4)CC3)c2F)C(C)C)cc1 [compound 114, (2S,4R)-1-((2R)-2-(3-(2-(4-(2-((4-(3-(3-amino-6-(2-hydroxyphenyl)pyridazin-4-yl)-3,8-diazabicyclo[3.2.1]octan-8-yl)pyridin-2-yl)oxy)ethyl)piperazin-1-yl)ethoxy)-4-fluoroisoxazol-5-yl)-3-methylbutanoyl)-4-hydroxy-N-((S)-1-(4-(4-methylthiazol-5-yl)phenyl)ethyl)pyrrolidine-2-carboxamide]
- DC50: < 2.5 nM
- Dmax: > 75%

SMILES: CC(C)[C@@H](C(=O)N1C[C@H](O)C[C@H]1C(=O)N[C@@H](C)c1ccc(-c2nccn2C)cc1)c1cc(OCCN2CCN(CCOc3cc(N4C5CCC4CN(c4cc(-c6ccccc6O)nnc4N)C5)ccn3)CC2)no1 [compound 115, (2S,4R)-1-((2R)-2-(3-(2-(4-(2-((4-(3-(3-amino-6-(2-hydroxyphenyl)pyridazin-4-yl)-3,8-diazabicyclo[3.2.1]octan-8-yl)pyridin-2-yl)oxy)ethyl)piperazin-1-yl)ethoxy)isoxazol-5-yl)-3-methylbutanoyl)-4-hydroxy-N-((S)-1-(4-(1-methyl-1H-imidazol-2-yl)phenyl)ethyl)pyrrolidine-2-carboxamide]
- DC50: > 30 nM
- Dmax: 50 to 75%

SMILES: Cc1ncsc1-c1ccc([C@H](C)NC(=O)[C@@H]2C[C@@H](O)CN2C(=O)[C@@H](c2cc(OCCN3CCN(CCOc4cc(N5C6CCC5CN(c5cc(-c7ccccc7O)nnc5N)C6)ccn4)CC3)no2)C(C)C)cn1 [compound 116, (2S,4R)-1-((2R)-2-(3-(2-(4-(2-((4-(3-(3-amino-6-(2-hydroxyphenyl)pyridazin-4-yl)-3,8-diazabicyclo[3.2.1]octan-8-yl)pyridin-2-yl)oxy)ethyl)piperazin-1-yl)ethoxy)isoxazol-5-yl)-3-methylbutanoyl)-4-hydroxy-N-((S)-1-(6-(4-methylthiazol-5-yl)pyridin-3-yl)ethyl)pyrrolidine-2-carboxamide]
- DC50: < 2.5 nM
- Dmax: > 75%

SMILES: Cc1ncoc1-c1ccc([C@H](C)NC(=O)[C@@H]2C[C@@H](O)CN2C(=O)[C@@H](c2cc(OCCN3CCN(CCOc4cc(N5C6CCC5CN(c5cc(-c7ccccc7O)nnc5N)C6)ccn4)CC3)no2)C(C)C)cn1 [compound 117, (2S,4R)-1-((2R)-2-(3-(2-(4-(2-((4-(3-(3-amino-6-(2-hydroxyphenyl)pyridazin-4-yl)-3,8-diazabicyclo[3.2.1]octan-8-yl)pyridin-2-yl)oxy)ethyl)piperazin-1-yl)ethoxy)isoxazol-5-yl)-3-methylbutanoyl)-4-hydroxy-N-((S)-1-(6-(4-methyloxazol-5-yl)pyridin-3-yl)ethyl)pyrrolidine-2-carboxamide]
- DC50: 2.5 to 10 nM
- Dmax: > 75%

- DC50: > 30 nM
- Dmax: > 75%
SMILES: Cc1ncsc1-c1ccc(CNC(=O)[C@@H]2C[C@@H](O)CN2C(=O)[C@@H](c2cc(OCCN3CCN(CCOCCn4cc(-c5cc(-c6ccccc6O)nnc5N)cn4)CC3)no2)C(C)C)cc1 [compound 124, (2S,4R)-1-((R)-2-(3-(2-(4-(2-(2-(4-(3-amino-6-(2-hydroxyphenyl)pyridazin-4-yl)-1H-pyrazol-1-yl)ethoxy)ethyl)piperazin-1-yl)ethoxy)isoxazol-5-yl)-3-methylbutanoyl)-4-hydroxy-N-(4-(4-methylthiazol-5-yl)benzyl)pyrrolidine-2-carboxamide]

SMILES: Cc1ncsc1-c1ccc(C2(NC(=O)[C@@H]3C[C@@H](O)CN3C(=O)[C@@H](c3cc(OCCN4CCN(CCOc5cc(N6C7CCC6CN(c6cc(-c8ccccc8O)nnc6N)C7)ccn5)CC4)no3)C(C)C)CN(C)C2)cc1 [compound 126, (2S,4R)-1-((2R)-2-(3-(2-(4-(2-((4-(3-(3-amino-6-(2-hydroxyphenyl)pyridazin-4-yl)-3,8-diazabicyclo[3.2.1]octan-8-yl)pyridin-2-yl)oxy)ethyl)piperazin-1-yl)ethoxy)isoxazol-5-yl)-3-methylbutanoyl)-4-hydroxy-N-(1-methyl-3-(4-(4-methylthiazol-5-yl)phenyl)azetidin-3-yl)pyrrolidine-2-carboxamide]
- DC50: 2.5 to 10 nM
- Dmax: > 75%

SMILES: CC(=O)N1CC(NC(=O)[C@@H]2C[C@@H](O)CN2C(=O)[C@@H](c2cc(OCCN3CCN(CCOc4cc(N5C6CCC5CN(c5cc(-c7ccccc7O)nnc5N)C6)ccn4)CC3)no2)C(C)C)(c2ccc(-c3scnc3C)cc2)C1 [compound 127, (2S,4R)-N-(1-acetyl-3-(4-(4-methylthiazol-5-yl)phenyl)azetidin-3-yl)-1-((2R)-2-(3-(2-(4-(2-((4-(3-(3-amino-6-(2-hydroxyphenyl)pyridazin-4-yl)-3,8-diazabicyclo[3.2.1]octan-8-yl)pyridin-2-yl)oxy)ethyl)piperazin-1-yl)ethoxy)isoxazol-5-yl)-3-methylbutanoyl)-4-hydroxypyrrolidine-2-carboxamide]
- DC50: 10 to 30 nM
- Dmax: > 75%

SMILES: CCOC[C@H](NC(=O)[C@@H]1C[C@@H](O)CN1C(=O)[C@@H](c1cc(OCCN2CCN(CCOc3cc(N4C5CCC4CN(c4cc(-c6ccccc6O)nnc4N)C5)ccn3)CC2)no1)C(C)C)c1ccc(-c2scnc2C)cc1 [compound 128, (2S,4R)-1-((2R)-2-(3-(2-(4-(2-((4-(3-(3-amino-6-(2-hydroxyphenyl)pyridazin-4-yl)-3,8-diazabicyclo[3.2.1]octan-8-yl)pyridin-2-yl)oxy)ethyl)piperazin-1-yl)ethoxy)isoxazol-5-yl)-3-methylbutanoyl)-N-((R)-2-ethoxy-1-(4-(4-methylthiazol-5-yl)phenyl)ethyl)-4-hydroxypyrrolidine-2-carboxamide]
- DC50: < 2.5 nM
- Dmax: > 75%

SMILES: Cc1ncsc1-c1ccc([C@H](COCC(C)C)NC(=O)[C@@H]2C[C@@H](O)CN2C(=O)[C@@H](c2cc(OCCN3CCN(CCOc4cc(N5C6CCC5CN(c5cc(-c7ccccc7O)nnc5N)C6)ccn4)CC3)no2)C(C)C)cc1 [compound 129, (2S,4R)-1-((2R)-2-(3-(2-(4-(2-((4-(3-(3-amino-6-(2-hydroxyphenyl)pyridazin-4-yl)-3,8-diazabicyclo[3.2.1]octan-8-yl)pyridin-2-yl)oxy)ethyl)piperazin-1-yl)ethoxy)isoxazol-5-yl)-3-methylbutanoyl)-4-hydroxy-N-((R)-2-isobutoxy-1-(4-(4-methylthiazol-5-yl)phenyl)ethyl)pyrrolidine-2-carboxamide]
- DC50: > 30 nM

SMILES: Cc1ncsc1-c1ccc([C@H](COCC2CCOCC2)NC(=O)[C@@H]2C[C@@H](O)CN2C(=O)[C@@H](c2cc(OCCN3CCN(CCOc4cc(N5C6CCC5CN(c5cc(-c7ccccc7O)nnc5N)C6)ccn4)CC3)no2)C(C)C)cc1 [compound 130, (2S,4R)-1-((2R)-2-(3-(2-(4-(2-((4-(3-(3-amino-6-(2-hydroxyphenyl)pyridazin-4-yl)-3,8-diazabicyclo[3.2.1]octan-8-yl)pyridin-2-yl)oxy)ethyl)piperazin-1-yl)ethoxy)isoxazol-5-yl)-3-methylbutanoyl)-4-hydroxy-N-((R)-1-(4-(4-methylthiazol-5-yl)phenyl)-2-((tetrahydro-2H-pyran-4-yl)methoxy)ethyl)pyrrolidine-2-carboxamide]
- DC50: 2.5 to 10 nM
- Dmax: > 75%

SMILES: Cc1ncsc1-c1ccc([C@@H](NC(=O)[C@@H]2C[C@@H](O)CN2C(=O)[C@@H](c2cc(OCCN3CCN(CCOc4cc(N5C6CCC5CN(c5cc(-c7ccccc7O)nnc5N)C6)ccn4)CC3)no2)C(C)C)C(=O)N(C)C)cc1 [compound 131, (2S,4R)-1-((2R)-2-(3-(2-(4-(2-((4-(3-(3-amino-6-(2-hydroxyphenyl)pyridazin-4-yl)-3,8-diazabicyclo[3.2.1]octan-8-yl)pyridin-2-yl)oxy)ethyl)piperazin-1-yl)ethoxy)isoxazol-5-yl)-3-methylbutanoyl)-N-((R)-2-(dimethylamino)-1-(4-(4-methylthiazol-5-yl)phenyl)-2-oxoethyl)-4-hydroxypyrrolidine-2-carboxamide]
- DC50: < 2.5 nM
- Dmax: > 75%

SMILES: Cc1ncsc1-c1ccc([C@H](C)NC(=O)[C@@H]2C[C@@H](O)CN2C(=O)[C@@H](c2cc(OCCN3C4CC3CN(CCOc3cc(N5C6CCC5CN(c5cc(-c7ccccc7O)nnc5N)C6)ccn3)C4)no2)C(C)C)cc1 [compound 132, (2S,4R)-1-((2R)-2-(3-(2-(3-(2-((4-(3-(3-amino-6-(2-hydroxyphenyl)pyridazin-4-yl)-3,8-diazabicyclo[3.2.1]octan-8-yl)pyridin-2-yl)oxy)ethyl)-3,6-diazabicyclo[3.1.1]heptan-6-yl)ethoxy)isoxazol-5-yl)-3-methylbutanoyl)-4-hydroxy-N-((S)-1-(4-(4-methylthiazol-5-yl)phenyl)ethyl)pyrrolidine-2-carboxamide]
- DC50: 2.5 to 10 nM
- Dmax: > 75%

SMILES: Cc1ncsc1-c1ccc([C@H](C)NC(=O)[C@@H]2C[C@@H](O)CN2C(=O)[C@@H](c2cc(OCCN3CC4CC(C3)N4CCOc3cc(N4C5CCC4CN(c4cc(-c6ccccc6O)nnc4N)C5)ccn3)no2)C(C)C)cc1 [compound 133, (2S,4R)-1-((2R)-2-(3-(2-(6-(2-((4-(3-(3-amino-6-(2-hydroxyphenyl)pyridazin-4-yl)-3,8-diazabicyclo[3.2.1]octan-8-yl)pyridin-2-yl)oxy)ethyl)-3,6-diazabicyclo[3.1.1]heptan-3-yl)ethoxy)isoxazol-5-yl)-3-methylbutanoyl)-4-hydroxy-N-((S)-1-(4-(4-methylthiazol-5-yl)phenyl)ethyl)pyrrolidine-2-carboxamide]
- DC50: < 2.5 nM
- Dmax: > 75%
